# Experimental data published in US7939535B2, “Benzo[D]isoxazol-3-yl-piperazin derivatives useful as modulators of dopamine D3 receptors” (Hoffman-La Roche Inc., priority 2008, dated 2011).
# Target: T1, human D3 dopamine receptor (Homo sapiens, UniProt P35462)
# T1 construct: expressed in transfected cells; host or cells: HEK-293 EBNA cells, transient transfection; membrane homogenate
# Experiment: radioligand binding ([3H]-spiperone) to human D3 receptor membranes
# Conditions: [3H]-spiperone displacement, membranes of HEK-293 EBNA cells transiently expressing human D3
# Procedure: The ability of the compounds to bind to the D3 receptors was determined using radioligand binding to cloned receptors selectively expressed in HEK-293 EBNA cells.
# HEK-293 EBNA cells were transiently transfected with expression plasmids encoding for the human D3 dopamine receptor. The cells were harvested 48 h post-transfection, washed three times with cold PBS and stored at −80° C. prior to use. The pellet was suspended in cold 50 mM Tris-HCl buffer containing 10 mM EDTA (pH 7.4) and homogenized with a Polytron (Kinematica AG, Basel, Switzerland) for 20-30 sec at 12.000 rpm. After centrifugation at 48.000×g for 30 mM at 4° C., the pellet was resuspended in cold 10 mM Tris-HCl buffer containing 0.1 mM EDTA (pH 7.4), homogenized, and centrifuged as above. This pellet was further resuspended in a smaller volume of ice cold 10 mM Tris-HCl buffer containing 0.1 mM EDTA (pH 7.4) and homogenized with a Polytron for 20-30 sec at 12.000 rpm. The protein content of this homogenate was determined with the Bio-Rad (radford) Protein Assay (Biorad Laboratories GmbH, München, Germany) according to the instructions of the manufacturer using gamma globulin as the standard. This homogenate was stored at −80° C. in aliquots and thawed immediately prior to use.
# Aliquots of membrane preparations were thawed at RT, resuspended in assay buffer (50 mM Tris-HCl, 120 mM NaCl, 5 mM MgCl2, 1 mM E TA, 5 mM KCl, 1.5 mM CaCl2, pH=7.4), homogenized with a Polytron for 20-30 sec at 12.000 rpm and adjusted to a final concentration of approximately 7.5 μg protein/well.
# The binding affinity (Ki) of the compounds was determined using radioligand binding. Membranes were incubated in a total volume of 200 with a fixed concentration of radioligand (final concentration approximately 0.5 nM [^3H]-spiperone) and ten concentrations of test compound in ranging between 10 μM-0.1 nM for 1 at RT. At the end of the incubation, the reaction mixtures were filtered on to unifilter 96-well white microplates with bonded GF/C filters (Packard BioScience, Zürich, Switzerland; preincubated for 1 h in 0.1% polyethylenimine (PEI) in assay buffer) with a Filtermate 196 harvester (Pack rd BioScience) and washed 3 times with cold assay buffer. The nonspecific binding was determined with equally composed reaction mixtures in the presence of 10 μM unlabelled spiperone. Per well 45 μl of Microscint 40 (Perkin Elmer, Schwerzenbach, Switzerland) was added, plate, for sealed, shaken for 20 mM and counted for 3 mM on a Topcount Microplate Scintillation Counter (Canberra Packard SA, Zürich, Switzerland) with quenching correction.
# The CPM value for each duplicate of a concentration of competing compound was averaged (y1), then the % specific binding was calculated according to the equation (((y1−non-specific)/(total binding-non-specific))×100). Graphs were plotted with the % specific binding using XLfit, a curve fitting program that iteratively plots the data using Levenburg Marquardt algorithm. The single site competition analysis equation used was y=A+((B−A)/(1+((x/C)^D))), where y is the % specific binding, A is the minimum y, B is the maximum y, C is the IC50, x is the log10 of the concentration of the competing compound and D is the slope of the curve (the Hill Coefficient). From these curves the IC50 (inhibition concentration at which 50% specific binding of the radioligand was displaced) and Hill coefficient were determined. The affinity constant (Ki) was calculated using the Cheng-Prusoff equation Ki=(IC50/1+([L]/Kd), where [L] is the concentration of radioligand and Kd is the dissociation constant of the radioligand at the receptor as determined by the saturation isotherm.
# T1 sequence (P35462 whole entry): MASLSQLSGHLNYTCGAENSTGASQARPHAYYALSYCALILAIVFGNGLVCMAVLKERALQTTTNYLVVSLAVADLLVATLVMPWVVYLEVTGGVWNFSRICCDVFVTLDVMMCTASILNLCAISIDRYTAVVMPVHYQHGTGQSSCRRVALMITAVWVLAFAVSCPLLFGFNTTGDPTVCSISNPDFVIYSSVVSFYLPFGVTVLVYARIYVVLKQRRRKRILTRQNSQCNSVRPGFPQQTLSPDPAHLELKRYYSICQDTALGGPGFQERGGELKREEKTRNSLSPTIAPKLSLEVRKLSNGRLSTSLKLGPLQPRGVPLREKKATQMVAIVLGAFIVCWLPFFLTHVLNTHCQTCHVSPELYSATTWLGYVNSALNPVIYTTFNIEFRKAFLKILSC
row,Compound,Ki [nM]
1,"CCC(=O)N[C@H]1CC[C@H](CCN2CCN(c3noc4c(F)cc(F)cc34)CC2)CC1 [Example 6, N-(trans-4-{2-[4-(5,7-Difluoro-benzo[d]isoxazol-3-yl)-piperazin-1-yl]-ethyl}-cyclohexyl)-propionamide]",4.53
2,"CC(=O)N[C@H]1CC[C@H](CCN2CCN(c3noc4ccc(F)c(F)c34)CC2)CC1 [Example 10, N-(trans-4-{2-[4-(4,5-Difluoro-benzo[d]isoxazol-3-yl)-piperazin-1-yl]-ethyl}-cyclohexyl)-acetamide]",8.57
3,"O=C(N[C@H]1CC[C@H](CCN2CCN(c3noc4c(F)cc(F)cc34)CC2)CC1)C1CCOCC1 [Example 8, Tetrahydro-pyran-4-carboxylic acid (trans-4-{2-[4-(5,7-difluoro-benzo[d]isoxazol-3-yl)-piperazin-1-yl]-ethyl}-cyclohexyl)-amide]",9.81
4,"COCCC(=O)N[C@H]1CC[C@H](CCN2CCN(c3noc4ccc(F)c(F)c34)CC2)CC1 [Example 11, N-(trans-4-{2-[4-(4,5-Difluoro-benzo[d]isoxazol-3-yl)-piperazin-1-yl]-ethyl}-cyclohexyl)-3-methoxy-propionamide]",9.71
5,"COCCC(=O)N[C@H]1CC[C@H](CCN2CCN(c3noc4c(F)cc(F)cc34)CC2)CC1 [Example 4, N-(trans-4-{2-[4-(5,7-Difluoro-benzo[d]isoxazol-3-yl)-piperazin-1-yl]-ethyl}-cyclohexyl)-3-methoxy-propionamide]",3.66
6,"NC(=O)CC(=O)N[C@H]1CC[C@H](CCN2CCN(c3noc4c(F)cc(F)cc34)CC2)CC1 [Example 9, N-(trans-4-{2-[4-(5,7-Difluoro-benzo[d]isoxazol-3-yl)-piperazin-1-yl]-ethyl}-cyclohexyl)-malonamide]",5.94
7,"COCC(=O)N[C@H]1CC[C@H](CCN2CCN(c3noc4c(F)cc(F)cc34)CC2)CC1 [Example 3, N-(trans-4-{2-[4-(5,7-Difluoro-benzo[d]isoxazol-3-yl)-piperazin-1-yl]-ethyl}-cyclohexyl)-2-methoxy-acetamide]",15.6
8,"O=C(CC1CC1)N[C@H]1CC[C@H](CCN2CCN(c3noc4c(F)cc(F)cc34)CC2)CC1 [Example 7, 2-Cyclopropyl-N-(trans-4-{2-[4-(5,7-difluoro-benzo[d]isoxazol-3-yl)-piperazin-1-yl]-ethyl}-cyclohexyl)-acetamide]",2.72

# Further compounds by falling Ki, results first:
row,Ki [nM],Compound
1,11.8,"CO[C@H]1CC[C@H](CC(=O)N[C@H]2CC[C@H](CCN3CCN(c4noc5c(F)cc(F)cc45)CC3)CC2)CC1 [Example 5, N-(trans-4-{2-[4-(5,7-Difluoro-benzo[d]isoxazol-3-yl)-piperazin-1-yl]-ethyl}-cyclohexyl)-2-(trans-4-methoxy-cyclohexyl)-acetamide]"
2,3.88,"O=C(CO)N[C@H]1CC[C@H](CCN2CCN(c3noc4c(F)cc(F)cc34)CC2)CC1 [Example 2, N-(trans-4-{2-[4-(5,7-Difluoro-benzo[d]isoxazol-3-yl)-piperazin-1-yl]-ethyl}-cyclohexyl)-2-hydroxy-acetamide]"
3,3.7,"CC(=O)N[C@H]1CC[C@H](CCN2CCN(c3noc4c(F)cc(F)cc34)CC2)CC1 [Example 1, N-(trans-4-{2-[4-(5,7-Difluoro-benzo[d]isoxazol-3-yl)-piperazin-1-yl]-ethyl}-cyclohexyl)-acetamide]"
